Type in all cases: biochemical
One data set relates to Thromboplastin F. The experiment in a line: Hydrolysis of chromogenic substrates by thromboplastin F. The following applies: Thromboplastin F 5%; substrate 50 μmol/l; after 92 hours at room temperature; 405 nm. The method, then:
(§1) Difference in extinction after 92 hours at room temperature of a reagent prepared according to Example 1. The substrate concentration was 50 μmol/l, and the thromboplastins were dissolved in accordance with the statements of the manufacturer and added at a concentration of 5%.
(§2) 4 to 20 ml of human thromboplastin were added to 70 ml of an aqueous solution containing 5.844 g of NaCl, 1.47 g of CaCl2, 11.92 g of HEPES, 250 μg of polybrene® and 67.1 mg of H-D-Phe-Pro-Arg-ANBA-isopropylamide HCl in one liter, pH 7.6, and the mixture was freeze-dried.

The next data set deals with Thromboplastin A. The experiment in a line: Hydrolysis of chromogenic substrates by thromboplastin A. The following applies: Thromboplastin A 5%; substrate 50 μmol/l; after 92 hours at room temperature; 405 nm. The protocol:
as §1, §2

The test system of a further data set is Thromboplastin E. The experiment in a line: Hydrolysis of chromogenic substrates by thromboplastin E. Conditions: Thromboplastin E 5%; substrate 50 μmol/l; after 92 hours at room temperature; 405 nm. The protocol: as §1, §2
The next data set relates to Thromboplastin B. The experiment in a line: Hydrolysis of chromogenic substrates by thromboplastin B. Conditions: Thromboplastin B 5%; substrate 50 μmol/l; after 92 hours at room temperature; 405 nm. The method, then: as §1, §2
Another data set has as its system Thromboplastin G. The experiment in a line: Hydrolysis of chromogenic substrates by thromboplastin G. The following applies: Thromboplastin G 5%; substrate 50 μmol/l; after 92 hours at room temperature; 405 nm. The method, then:
as §1, §2

For another data set, the system named is Thromboplastin D. The experiment in a line: Hydrolysis of chromogenic substrates by thromboplastin D. Conditions: Thromboplastin D 5%; substrate 50 μmol/l; after 92 hours at room temperature; 405 nm. The method, then:
as §1, §2

For the next data set, the system named is Thromboplastin C. The experiment in a line: Hydrolysis of chromogenic substrates by thromboplastin C. The following applies: Thromboplastin C 5%; substrate 50 μmol/l; after 92 hours at room temperature; 405 nm. The method, then:
as §1, §2

Data set [1] concerns thromboplastins of the state of the art. The experiment in a line: Hydrolysis of chromogenic substrates by thromboplastins. Conditions: for Stability of a reagent containing the substrate (in words): reagent with thromboplastin having proteolytic activity. The method, then:
The substrate concentration was 50 μmol/l, and the thromboplastins were dissolved in accordance with the statements of the manufacturer and added at a concentration of 5%.

Starred links: 1 amine or outer side, 2 acyl side, 3 side chain; linkers in the order of their positions; H or OH if unused. Non-standard residues stand in square brackets, D forms with d. Residues, ends and D or L forms follow the SMILES beside them. *: point of attachment. Benzoyl(5-NH,2-NO2) = O=C(c1cc(N[*:1])ccc1[N+](=O)[O-])[*:2]; pNA = O=[N+]([O-])c1ccc(N*)cc1; Tos = Cc1ccc(S(=O)(=O)*)cc1

With `CCOC(=O)CNC(=O)c1cc(NC(=O)[C@H](CCCNC(=N)N)NC(=O)[C@@H]2CCCN2C(=O)[C@H](N)Cc2ccccc2)ccc1[N+](=O)[O-]` [D-Phe-Pro-Arg-ANBA-Glycine ethyl ester] (H-[dF]PR[Benzoyl(5-NH,2-NO2)]G-OEt), the “Difference in extinction (hydrolysis of chromogenic substrate)” value (“Difference in extinction” for short) is 0,011 with Thromboplastin F; 0,007 in the data set on Thromboplastin A; 0,008 with Thromboplastin E; 0,009 in the data set with Thromboplastin B; 0,003 in the data set on Thromboplastin G; 0,019 in the data set with Thromboplastin D. Moreover, the “Difference in extinction” value in the data set with Thromboplastin C is reported as 0,015.
Regarding `CC(C)NC(=O)c1cc(NC(=O)[C@H](CCCNC(=N)N)NC(=O)[C@@H]2CCCN2C(=O)[C@H](N)Cc2ccccc2)ccc1[N+](=O)[O-]` [D-Phe-Pro-Arg-ANBA-isopropylamide, H-D-Phe-Pro-Arg-ANBA-isopropylamide], in data set [1], the “Stability of a reagent containing the substrate (in words)” value was “stable for a considerably longer time”. Also, the “Difference in extinction” value is on record as 0 in the data set on Thromboplastin F; 0,006 in the data set on Thromboplastin A; 0,011 with Thromboplastin E; 0,016 in the data set with Thromboplastin B; 0 with Thromboplastin G; 0,013 with Thromboplastin D. Besides, the “Difference in extinction” value in the data set on Thromboplastin C is 0,010.
In the case of `CCCCNC(=O)c1cc(NC(=O)[C@H](CCCNC(=N)N)NC(=O)[C@@H]2CCCN2C(=O)[C@H](N)Cc2ccccc2)ccc1[N+](=O)[O-]` [D-Phe-Pro-Arg-ANBA-n-Butylamide], the “Difference in extinction” value is given as 0,023 in the data set with Thromboplastin F; 0,021 in the data set with Thromboplastin A; 0,030 with Thromboplastin E; 0,023 in the data set on Thromboplastin B; 0,012 in the data set on Thromboplastin G; 0,013 in the data set on Thromboplastin D. Further, in the data set on Thromboplastin C, the “Difference in extinction” value is on record as 0,019.
With `CC(C)(C)CNC(=O)c1cc(NC(=O)[C@H](CCCNC(=N)N)NC(=O)[C@@H]2CCCN2C(=O)[C@H](N)Cc2ccccc2)ccc1[N+](=O)[O-]` [D-Phe-Pro-Arg-ANBA-neopentylamide], the “Difference in extinction” value is 0,003 in the data set on Thromboplastin F; 0,003 in the data set on Thromboplastin A; 0,014 with Thromboplastin E; 0,009 in the data set on Thromboplastin B; 0,002 with Thromboplastin G; 0,007 with Thromboplastin D. The “Difference in extinction” value with Thromboplastin C is 0,011.
On to `CC(C)C[C@H](N)C(=O)Nc1ccc([N+](=O)[O-])cc1` [Leu-pNA, reference compound], for which the “Difference in extinction” value in the data set on Thromboplastin F is on record as 0,536; in the data set on Thromboplastin A, 0,974; in the data set on Thromboplastin E it was 0,871; with Thromboplastin B, 0,681; with Thromboplastin G, 1,124; with Thromboplastin D, 0,593. For the same compound, the “Difference in extinction” value in the data set on Thromboplastin C is 0,721.
Regarding `NCCCC[C@H](NC(=O)c1ccccc1)C(=O)Nc1ccc([N+](=O)[O-])cc1` [N-α-Benzoyl-L-Lysine-pNA, reference compound], the “Difference in extinction” value is given as 0,198 in the data set on Thromboplastin F; 0,319 with Thromboplastin A; 0,372 in the data set with Thromboplastin E; 0,525 in the data set with Thromboplastin B; 0,503 in the data set with Thromboplastin G; 0,402 in the data set on Thromboplastin D. Besides, the “Difference in extinction” value with Thromboplastin C is 0,433.
As for `C[C@H](NC(=O)CCC(=O)O)C(=O)N[C@@H](C)C(=O)N[C@@H](C)C(=O)Nc1ccc([N+](=O)[O-])cc1` [Suc-(Ala)3-pNA, reference compound], the “Difference in extinction” value with Thromboplastin F was 0,310; in the data set with Thromboplastin A, 0,211; in the data set on Thromboplastin E it was 0,178; with Thromboplastin B it was 0,324; in the data set on Thromboplastin G, 0,202; with Thromboplastin D it was 0,411. In the data set on Thromboplastin C, the “Difference in extinction” value was 0,248.
Regarding `CCOC(=O)CNC(=O)c1cc(NC(=O)[C@H](CCCNC(=N)N)NC(=O)[C@@H]2CCCN2C(=O)CNS(=O)(=O)c2ccc(C)cc2)ccc1[N+](=O)[O-]` [Tos-Gly-Pro-Arg-ANBA-Glycine ethyl ester] (Tos-GPR[Benzoyl(5-NH,2-NO2)]G-OEt), the “Difference in extinction” value in the data set with Thromboplastin F was 0,023; in the data set with Thromboplastin A it was 0,029; in the data set on Thromboplastin E, 0,037; with Thromboplastin B, 0,034; in the data set on Thromboplastin G, 0,029; with Thromboplastin D, 0,026. In addition, in the data set on Thromboplastin C, the “Difference in extinction” value is recorded as 0,028.
Turning to `Cc1ccc(S(=O)(=O)NCC(=O)N2CCC[C@H]2C(=O)N[C@@H](CCCNC(=N)N)C(=O)Nc2ccc([N+](=O)[O-])c(C(=O)NC(C)C)c2)cc1` [Tos-Gly-Pro-Arg-ANBA-isopropylamide], the “Difference in extinction” value in the data set with Thromboplastin F was 0,029; with Thromboplastin A it was 0,035; in the data set on Thromboplastin E, 0,041; in the data set on Thromboplastin B, 0,039; in the data set with Thromboplastin G, 0,018; with Thromboplastin D, 0,023. For the same compound, in the data set with Thromboplastin C, the “Difference in extinction” value was 0,030.
For `Cc1ccc(S(=O)(=O)NCC(=O)N2CCC[C@H]2C(=O)N[C@@H](CCCNC(=N)N)C(=O)Nc2ccc([N+](=O)[O-])cc2)cc1` [Tos-Gly-Pro-Arg-pNA, reference compound] (Tos-Gly-Pro-Arg-pNA), in data set [1] (extinction at 405 nm, Table 1), the “Extent of hydrolysis by the thromboplastins (in words)” value is “rapid consumption of the substrate”. Moreover, the “Stability of a reagent containing the substrate (in words)” value in data set [1] is “stable for only a very short time”. Besides, the “Difference in extinction” value is given as 0,116 with Thromboplastin F; 0,190 in the data set with Thromboplastin A; 0,123 with Thromboplastin E; 0,143 in the data set with Thromboplastin B; 0,149 with Thromboplastin G; 0,137 in the data set with Thromboplastin D. For the same compound, the “Difference in extinction” value in the data set with Thromboplastin C is on record as 0,115.
Turning to D-Phe-Pro-Arg-ANBA-Valine methyl ester, the “Difference in extinction” value in the data set with Thromboplastin F is on record as 0; with Thromboplastin A it was 0,003; with Thromboplastin E, 0; in the data set on Thromboplastin B, 0,031; in the data set on Thromboplastin G it was 0,002; in the data set on Thromboplastin D, 0,020. For the same compound, in the data set with Thromboplastin C, the “Difference in extinction” value was 0,008.
